Values quoted from earlier work in publication PMC7775502, “Molecular Screening Strategy to Identify a Non-invasive Delivery Mechanism for the Treatment of Middle Ear Disorders” (Frontiers in Medicine, 2020).

Tests used:
[1] = system: intact tympanic membrane (TM); conditions: peptide phage, incubation 1 h on the exterior surface of the TM, ref Kurabi et al. ([26])
Excerpt: Table 1 The sequences and ME recovery of the trans-TM, 12-mer backbone peptides (TMT-2 and TMT-3) plus the top 18-mer peptide phages from the 18-mer screen. | column: Mean recovery from ME (PFUs)

rabbit TM fragments = conditions: in vitro two-chamber assay, uninfected MEs; ref [28]
Excerpt: (§1) We first tested trans-TM phage TMT-3 transport across TMs from NTHi-infected MEs of rats as well as from rats with normal MEs.

rat TM = conditions: in vitro two-chamber assay, ref [28]
Excerpt: as §1

human TM = conditions: in vitro two-chamber assay, discarded TM fragments from patients undergoing TM repair; ref [28]
Excerpt: as §1

[2] = system: intact TM of ex vivo ME bulla; conditions: review of the authors' earlier work
Protocol: In order to learn more about the mechanisms of phage transport phenomena, several experiments were designed to evaluate the impact of concentration, temperature, and oxygen levels on transport across the TM. […] Next, we tested the sensitivity of transport to oxygen deprivation and temperature using the ex vivo, intact ME bulla. When ME recovery of phage TMT-3 was assessed at various times after death, transport was observed up to 6 h postmortem, after which it ceased. Wh ...

guinea pig TM fragments = system: guinea pig TM fragments; set-up: method as in PMID 30087425; conditions: in vitro two-chamber assay, uninfected MEs; ref [28]

Sequence | Mean recovery from ME (PFUs) [1] | other results
SPTIFSTLSPKMPGGGYW [TMT-2(18)-2, M13 bacteriophage expressing 18-mer trans-TM peptide […] on pIII protein] | 12,000 PFUs | –
LANNNLTLSPKMPGGGYW [TMT-2(18)-1, M13 bacteriophage expressing 18-mer trans-TM peptide […] on pIII protein] | 120 PFUs | –
SADSTKTTHLTL [TMT-3, M13 bacteriophage expressing 12-mer trans-TM backbone peptide […] on pIII protein] | 10,800 PFUs | Transport across uninfected rabbit TM fragments compared with other species (rabbit TM fragments): similar; Transport across TMs from NTHi-infected MEs versus normal MEs (rat TM; 1.5 mm chambers, rat TMs): no difference in transport; Transport across uninfected rat TM fragments compared with other species (rat TM; uninfected MEs): similar; Transport across human TM (human TM): comparable levels; Transport at lowered bulla temperature ([2]; 4°C, transport over 1 h): almost entirely eliminated; Time after death up to which transport was observed ([2]; ME recovery of phage at various times postmortem, transport ceased afterwards): up to 6 h; Transport across uninfected guinea pig TM fragments compared with other species (guinea pig TM fragments): similar
TLSPKMPGGGYW [TMT-2, M13 bacteriophage expressing 12-mer trans-TM backbone peptide […] on pIII protein] | 5,900 PFUs | –
TEVTSRSADSTKTTHLTL [TMT-3(18)-3, M13 bacteriophage expressing 18-mer trans-TM peptide […] on pIII protein] | 280 PFUs | –
EGHLFPSADSTKTTHLTL [TMT-3(18)-1, M13 bacteriophage expressing 18-mer trans-TM peptide […] on pIII protein] | 90,000 PFUs | –
KISVYRSADSTKTTHLTL [TMT-3(18)-2, M13 bacteriophage expressing 18-mer trans-TM peptide […] on pIII protein] | 40,000 PFUs | –
VPQGATTLSPKMPGGGYW [TMT-2(18)-3, M13 bacteriophage expressing 18-mer trans-TM peptide […] on pIII protein] | 3,000 PFUs | –
